# Laboratory results from ChEMBL document CHEMBL2010651, “Discovery and hit-to-lead optimization of pyrrolopyrimidines as potent, state-dependent Na(v)1.7 antagonists” (Bioorg Med Chem Lett, 2012).
# Experiment: Solubility in phosphate buffered saline
# Format: physicochemical
# Conditions: not given
row,solubility [µg/mL],SMILES
1,65,Cc1c(C)n(Cc2ccccc2)c2ncnc(OC3CCN(Cc4cscn4)CC3)c12

# Experiment: Solubility in 0.01 N HCl
# Format: physicochemical
# Conditions: not given
row,solubility [µg/mL],SMILES
1,> 200,Cc1c(C)n(Cc2ccccc2)c2ncnc(OC3CCN(Cc4cscn4)CC3)c12

# Experiment: Lipophilicity, log D of the compound at pH 7.4
# Format: physicochemical
# Conditions: buffer
row,logD,SMILES
1,4.35,Cc1c(C)n(Cc2ccccc2)c2ncnc(OC3CCN(Cc4cscn4)CC3)c12
2,3.89,Cc1cn(Cc2ccccc2)c2ncnc(OC3CCN(Cc4cscn4)CC3)c12
3,3.49,Fc1cn(Cc2ccccc2)c2ncnc(OC3CCN(Cc4cscn4)CC3)c12
4,4.03,Clc1cn(Cc2ccccc2)c2ncnc(OC3CCN(Cc4cscn4)CC3)c12
5,3.44,c1ccc(Cn2ccc3c(OC4CCN(Cc5cscn5)CC4)ncnc32)cc1
6,4.15,Cc1nc(OC2CCN(Cc3cscn3)CC2)c2ccn(Cc3ccccc3)c2n1
7,5.1,FC(F)(F)c1nc(OC2CCN(Cc3cscn3)CC2)c2ccn(Cc3ccccc3)c2n1
8,2.18,c1ccc(Cn2ncc3c(OC4CCN(Cc5cscn5)CC4)ncnc32)cc1
9,2.28,c1ccc(Cn2cnc3c(OC4CCN(Cc5cscn5)CC4)ncnc32)cc1
10,3.94,CC1(C)CN(Cc2ccccc2)c2ncnc(OC3CCN(Cc4cscn4)CC3)c21
11,2.39,CC1(C)C(=O)N(Cc2ccccc2)c2ncnc(OC3CCN(Cc4cscn4)CC3)c21
12,3.3,c1ccc(-n2ccc3c(OC4CCN(Cc5cscn5)CC4)ncnc32)cc1
13,3.87,c1ccc(CCn2ccc3c(OC4CCN(Cc5cscn5)CC4)ncnc32)cc1
14,4.32,c1nc(OC2CCN(Cc3cscn3)CC2)c2ccn(CC3CCCCC3)c2n1
15,3.49,Fc1ccccc1Cn1ccc2c(OC3CCN(Cc4cscn4)CC3)ncnc21
16,3.49,Fc1cccc(Cn2ccc3c(OC4CCN(Cc5cscn5)CC4)ncnc32)c1
17,3.49,Fc1ccc(Cn2ccc3c(OC4CCN(Cc5cscn5)CC4)ncnc32)cc1
18,4.03,Clc1cccc(Cn2ccc3c(OC4CCN(Cc5cscn5)CC4)ncnc32)c1
19,4.03,Clc1ccc(Cn2ccc3c(OC4CCN(Cc5cscn5)CC4)ncnc32)cc1

row,logD,SMILES
1,3.9,Cc1ccccc1Cn1ccc2c(OC3CCN(Cc4cscn4)CC3)ncnc21
2,3.9,Cc1cccc(Cn2ccc3c(OC4CCN(Cc5cscn5)CC4)ncnc32)c1
3,3.9,Cc1ccc(Cn2ccc3c(OC4CCN(Cc5cscn5)CC4)ncnc32)cc1
4,4.01,FC(F)(F)c1ccccc1Cn1ccc2c(OC3CCN(Cc4cscn4)CC3)ncnc21
5,4.01,FC(F)(F)c1cccc(Cn2ccc3c(OC4CCN(Cc5cscn5)CC4)ncnc32)c1
6,4.01,FC(F)(F)c1ccc(Cn2ccc3c(OC4CCN(Cc5cscn5)CC4)ncnc32)cc1
7,3.45,Fc1cccc(Cn2ccc3c(OC4CCN(Cc5cscn5)CC4)ncnc32)c1F
8,4.19,Fc1c(Cl)cccc1Cn1ccc2c(OC3CCN(Cc4cscn4)CC3)ncnc21
9,4.08,Fc1c(Cn2ccc3c(OC4CCN(Cc5cscn5)CC4)ncnc32)cccc1C(F)(F)F
10,3.58,Fc1cccc(F)c1Cn1ccc2c(OC3CCN(Cc4cscn4)CC3)ncnc21
11,1.24,c1ccc(Cn2ccc3c(OC4CCNCC4)ncnc32)cc1
12,5.31,c1ccc(Cn2ccc3c(OC4CCN(c5ccccc5)CC4)ncnc32)cc1
13,4.96,c1ccc(CN2CCC(Oc3ncnc4c3ccn4Cc3ccccc3)CC2)cc1
14,3.07,O=C(c1cscn1)N1CCC(Oc2ncnc3c2ccn3Cc2ccccc2)CC1
15,3.1,c1ccc(Cn2ccc3c(OC4CCN(Cc5cocn5)CC4)ncnc32)cc1
16,2.35,c1ccc(Cn2ccc3c(OC4CCN(Cc5c[nH]cn5)CC4)ncnc32)cc1
17,3.02,c1ccc(Cn2ccc3c(OC4CCN(Cc5ccn[nH]5)CC4)ncnc32)cc1
18,3.16,c1ccc(Cn2ccc3c(OC4CCN(Cc5cn[nH]c5)CC4)ncnc32)cc1
19,3.01,Cn1cc(CN2CCC(Oc3ncnc4c3ccn4Cc3ccccc3)CC2)cn1

row,logD,SMILES
1,2.93,Cn1ccnc1CN1CCC(Oc2ncnc3c2ccn3Cc2ccccc2)CC1
2,4.1,Cc1nc(CN2CCC(Oc3ncnc4c3ccn4Cc3ccccc3)CC2)cs1
3,4.81,c1ccc(Cn2ccc3c(OC4CCN(Cc5nccs5)CC4)ncnc32)cc1
4,3.7,c1ccc(Cn2ccc3c(OC4CCN(Cc5ccccn5)CC4)ncnc32)cc1
5,3.67,c1ccc(Cn2ccc3c(OC4CCN(Cc5cccnc5)CC4)ncnc32)cc1
6,3.69,c1ccc(Cn2ccc3c(OC4CCN(Cc5ccncc5)CC4)ncnc32)cc1
7,4.08,Cc1cccc(CN2CCC(Oc3ncnc4c3ccn4Cc3ccccc3)CC2)n1
8,4.15,Cc1ccc(CN2CCC(Oc3ncnc4c3ccn4Cc3ccccc3)CC2)nc1
9,4.15,Cc1ccnc(CN2CCC(Oc3ncnc4c3ccn4Cc3ccccc3)CC2)c1
10,4.15,Cc1cccnc1CN1CCC(Oc2ncnc3c2ccn3Cc2ccccc2)CC1
11,3.83,Fc1cccc(CN2CCC(Oc3ncnc4c3ccn4Cc3ccccc3)CC2)n1
12,3.76,Fc1ccc(CN2CCC(Oc3ncnc4c3ccn4Cc3ccccc3)CC2)nc1
13,3.77,Fc1cccnc1CN1CCC(Oc2ncnc3c2ccn3Cc2ccccc2)CC1
14,2.71,c1ccc(Cn2ccc3c(OC4CCN(Cc5cnccn5)CC4)ncnc32)cc1
15,3.75,Fc1ccccc1Cn1ccc2c(OC3CCN(Cc4ccccn4)CC3)ncnc21
16,3.71,Fc1cccc(Cn2ccc3c(OC4CCN(Cc5ccccn5)CC4)ncnc32)c1F
17,4.46,Fc1c(Cl)cccc1Cn1ccc2c(OC3CCN(Cc4ccccn4)CC3)ncnc21
18,4.35,Fc1c(Cn2ccc3c(OC4CCN(Cc5ccccn5)CC4)ncnc32)cccc1C(F)(F)F

# Experiment: Solubility in simulated intestinal fluid
# Format: physicochemical
# Conditions: not given
row,solubility [µg/mL],SMILES
1,177,Cc1c(C)n(Cc2ccccc2)c2ncnc(OC3CCN(Cc4cscn4)CC3)c12
